Reference: patent publication EP4122499A1, “FIBROBLAST ACTIVATION PROTEIN INHIBITORS AND USE THEREOF” (3B Pharmaceuticals GmbH, priority 2021, dated 2023)

Key:
[1] = biological target: T1, FAP-expressing human WI-38 fibroblasts (Homo sapiens, UniProt Q12884); test: Competitive FACS binding assay (displacement of Cy5-labeled FAP inhibitor 3BP-2935); conditions: 3 nM Cy5-labeled 3BP-2935, 4°C, 1 hour
T1 construct: FAP-expressing human WI-38 fibroblasts (ECACC 90020107) were cultured in EMEM; host or cells: WI-38 human fibroblasts
T1 sequence (Q12884 1-760): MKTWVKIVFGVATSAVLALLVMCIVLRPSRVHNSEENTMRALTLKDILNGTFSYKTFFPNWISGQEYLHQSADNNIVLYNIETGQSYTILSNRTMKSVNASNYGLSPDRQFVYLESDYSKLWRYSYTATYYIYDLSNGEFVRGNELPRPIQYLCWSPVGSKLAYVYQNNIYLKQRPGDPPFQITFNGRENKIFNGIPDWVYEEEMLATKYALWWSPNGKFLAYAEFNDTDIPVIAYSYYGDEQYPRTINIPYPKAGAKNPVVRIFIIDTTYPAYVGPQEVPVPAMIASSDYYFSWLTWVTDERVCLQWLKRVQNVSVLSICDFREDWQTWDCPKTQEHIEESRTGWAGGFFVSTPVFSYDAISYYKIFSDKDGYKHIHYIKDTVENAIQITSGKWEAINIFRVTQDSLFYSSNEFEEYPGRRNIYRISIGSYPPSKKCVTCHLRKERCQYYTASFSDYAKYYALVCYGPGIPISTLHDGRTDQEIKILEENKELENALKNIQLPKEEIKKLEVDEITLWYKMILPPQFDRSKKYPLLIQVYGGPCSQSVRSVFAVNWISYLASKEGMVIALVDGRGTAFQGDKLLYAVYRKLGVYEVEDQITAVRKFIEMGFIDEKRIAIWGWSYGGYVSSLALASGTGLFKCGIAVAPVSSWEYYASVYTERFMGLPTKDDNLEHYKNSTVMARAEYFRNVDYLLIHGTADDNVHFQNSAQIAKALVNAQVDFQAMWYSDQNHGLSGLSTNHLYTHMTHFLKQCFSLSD

Human recombinant FAP [2] = biological target: T2, Human recombinant FAP (Homo sapiens, UniProt Q12884); test: Surface plasmon resonance assay (Biacore T200, single cycle kinetics); format: binding; conditions: SPR, 25°C; for Kd / pKD (Biacore): 1:1 Langmuir binding model; for Kd: read-out: pKD (Biacore) (converted); for HL [min] (Biacore): half-life
T2 sequence (Q12884 1-760): T1 sequence (Q12884 1-760)
How it was run: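 Human recombinant FAP (20 µg/mL) was captured on anti-FAP antibody immobilized on a CM5 chip, and compounds were run in single-cycle kinetics at 25 °C in HBST with 0.1% DMSO, starting from 500 nM. Sensorgrams were corrected against a reference flow cell and for baseline drift. kon, koff, KD and t1/2 came from a 1:1 Langmuir fit, with pKD = −log KD.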

Human recombinant FAP [3] = biological target: T2, Human recombinant FAP; test: FRET-based FAP protease activity assay (human); format: biochemical; set-up: purchased R&D systems 3715-SE; conditions: FRET-peptide substrate, 37°C; for IC50: read-out: pIC50 (Activity) (converted)
Experimental: In order to determine the inhibitory activity a FRET-based FAP protease activity assay was established.
25 µL of a 30 µM substrate solution, diluted in assay buffer, was added. […] Four parameter logistic (4PL) curve fitting and pIC50 calculations were performed using ActivityBase software (IDBS).

| SMILES | IC50 [1] [nM] | Kd (Human recombinant FAP [2]) [nM] | HL [min] (Biacore) (Human recombinant FAP [2]) | IC50 (Human recombinant FAP [3]) [nM] | pIC50 (FACS) [1] | pKD (Biacore) (Human recombinant FAP [2]) | pIC50 (Activity) (Human recombinant FAP [3]) |
| --- | --- | --- | --- | --- | --- | --- | --- |
| O=C(O)CN1CCN(CC(=O)O)CCN(CC(=O)N2CCN(CCCOc3ccc4nccc(C(=O)NCC(=O)N5CC(F)(F)C[C@H]5C(=O)c5nc6ccccc6o5)c4c3)CC2)CCN(CC(=O)O)CC1 |  |  | 57 |  | 7.9 | 8.6 | 8.6 |
| O=C(NCC(=O)N1CCC[C@H]1C(=O)c1ncco1)c1ccnc2ccccc12 [drawing 297] | 12.6 | 2.51 | 0.6 | 6.31 |  |  |  |
| O=C(O)CN1CCN(CC(=O)O)CCN(CC(=O)N2CCN(CCNC(=O)c3ccc(-c4ccc5c(C(=O)NCC(=O)N6CCC[C@H]6C(=O)c6nc7ccccc7o6)ccnc5c4)cc3)CC2)CCN(CC(=O)O)CC1 [drawing 355] |  |  | >500 |  | 8.4 | >11 | 8.7 |
| CS(=O)(=O)c1cccc(-c2ccc3c(C(=O)NCC(=O)N4CC(F)(F)C[C@H]4C#N)ccnc3c2)c1 [drawing 289] | 2 | 0.0794 | 29.5 | 0.794 |  |  |  |
| CS(=O)(=O)c1cccc(-c2ccc3nccc(C(=O)NCC(=O)N4CC(F)(F)C[C@H]4C#N)c3c2)c1 [drawing 288] | 1.58 | 0.0794 | 29 | 0.631 |  |  |  |
| CS(=O)(=O)c1ccc(-c2ccc3c(C(=O)NCC(=O)N4CCC[C@H]4C#N)ccnc3c2)cc1 [drawing 290] | 6.31 | 0.631 | 4 | 1.58 |  |  |  |
| O=C(O)CN1CCN(CC(=O)O)CCN(CC(=O)N2CCN(CCNC(=O)c3ccc(-c4ccc5nccc(C(=O)NCC(=O)N6CCC[C@H]6C(=O)c6nc7ccccc7o6)c5c4)cn3)CC2)CCN(CC(=O)O)CC1 [drawing 361] |  |  | 4.1 |  | 7.6 | 8.7 | 8.4 |
| N#C[C@@H]1CCCN1C(=O)CNC(=O)c1ccnc2ccc(-c3ccc(C(=O)NCCCNC(=O)CN4CCN(CC(=O)O)CCN(CC(=O)O)CCN(CC(=O)O)CC4)cc3)cc12 |  |  | 160 |  | 8.7 | 10.2 | 9 |
| O=C(O)CN1CCN(CC(=O)O)CCN(CC(=O)N2CCN(CCCOc3ccc4nccc(C(=O)NCC(=O)N5C[C@@H](F)C[C@H]5C(=O)c5nc6ccccc6o5)c4c3)CC2)CCN(CC(=O)O)CC1 [drawing 358] |  |  | >500 |  | 8.6 | >11 | 9 |
| O=C(O)CN1CCN(CC(=O)O)CCN(CC(=O)NCCCNC(=O)c2ccc(-c3ccc4nccc(C(=O)NCC(=O)N5CCC[C@H]5B(O)O)c4c3)cc2)CCN(CC(=O)O)CC1 |  |  | >500 |  | 8.9 | >11 | 8.8 |
| O=C(O)CN1CCN(CC(=O)O)CCN(CC(=O)N2CCN(CCNC(=O)c3ccc(-c4ccc5nccc(C(=O)NCC(=O)N6C[C@@H](F)C[C@H]6C(=O)c6nc7ccccc7o6)c5c4)cc3)CC2)CCN(CC(=O)O)CC1 [drawing 360] |  |  | 4.8 |  | 7.6 | 9 | 8.5 |
| N#C[C@@H]1CC(F)(F)CN1C(=O)CNC(=O)c1cc[n+]([O-])c2ccc(OCCCN3CCN(C(=O)CN4CCN(CC(=O)O)CCN(CC(=O)O)CCN(CC(=O)O)CC4)CC3)cc12 |  |  | 19 |  | 8.5 | 9.8 | 9 |
| N#C[C@@H]1CC(F)(F)CN1C(=O)CNC(=O)c1ccnc2ccc(-c3ccc(C(=O)NCCCNC(=O)CN4CCN(CC(=O)O)CCN(CC(=O)O)CCN(CC(=O)O)CC4)cc3)cc12 |  |  | 110 |  | 8.9 | >11 | 9.2 |
| N#C[C@@H]1CC(F)(F)CN1C(=O)CNC(=O)c1ccnc2ccc(-c3ccc(S(=O)(=O)CCCNC(=O)CN4CCN(CC(=O)O)CCN(CC(=O)O)CCN(CC(=O)O)CC4)cc3)cc12 |  |  | >500 |  | 9.2 | >11 | 9.1 |
| N#C[C@@H]1CC(F)(F)CN1C(=O)CNC(=O)c1ccnc2ccc(-c3ccc(C(=O)NCCN4CCN(C(=O)CN5CCN(CC(=O)O)CCN(CC(=O)O)CCN(CC(=O)O)CC5)CC4)cc3)cc12 |  |  | >500 |  | 8.7 | >11 | 9.1 |
| N#C[C@@H]1CC(F)(F)CN1C(=O)CNC(=O)c1ccnc2ccc(-c3ccc(C(=O)NCCCNC(=O)CN4CCN(CC(=O)O)CCN(CC(=O)O)CCN(CC(=O)O)CC4)nc3)cc12 |  |  | >500 |  | 8.8 | >11 | 9.1 |
| O=C(O)CN1CCN(CC(=O)O)CCN(CC(=O)N2CCN(CCCOc3ccc4nccc(C(=O)NCC(=O)N5CCC[C@H]5C(=O)c5nc6ccccc6o5)c4c3)CC2)CCN(CC(=O)O)CC1 [drawing 357] |  |  | >500 |  | 8.6 | >11 | 8.9 |

More lines, now with the values ahead:

| IC50 [1] [nM] | Kd (Human recombinant FAP [2]) [nM] | HL [min] (Biacore) (Human recombinant FAP [2]) | IC50 (Human recombinant FAP [3]) [nM] | pIC50 (FACS) [1] | pKD (Biacore) (Human recombinant FAP [2]) | pIC50 (Activity) (Human recombinant FAP [3]) | SMILES |
| --- | --- | --- | --- | --- | --- | --- | --- |
| 3.98 | 0.398 | 2.5 | 1 |  |  |  | CS(=O)(=O)c1cccc(-c2ccc3nccc(C(=O)NCC(=O)N4CCC[C@H]4C#N)c3c2)c1 |
| 6.31 | 0.501 | 3.7 | 1.58 |  |  |  | O=C(NCC(=O)N1CCC[C@H]1C(=O)c1nc2ccccc2o1)c1ccnc2ccccc12 |
| 6.31 | 0.501 | 5.7 | 2 |  |  |  | CS(=O)(=O)c1cccc(-c2ccc3c(C(=O)NCC(=O)N4CCC[C@H]4C#N)ccnc3c2)c1 |
|  |  | >500 |  | 8.4 | >11 | 8.7 | O=C(O)CN1CCN(CC(=O)O)CCN(CC(=O)N2CCN(CCNC(=O)c3cccc(-c4ccc5c(C(=O)NCC(=O)N6CCC[C@H]6C(=O)c6nc7ccccc7o6)ccnc5c4)c3)CC2)CCN(CC(=O)O)CC1 [drawing 352] |
|  |  | 259.3 |  | 8.6 | 10.3 | 8.8 | O=C(O)CN1CCN(CC(=O)O)CCN(CC(=O)NCCCNC(=O)c2ccc(-c3ccc4nccc(C(=O)NCC(=O)N5CCC[C@H]5C(=O)c5nc6ccccc6o5)c4c3)cc2)CCN(CC(=O)O)CC1 |
| 1 | 0.0251 | 125 | 0.631 |  |  |  | CS(=O)(=O)c1ccc(-c2ccc3nccc(C(=O)NCC(=O)N4CC(F)(F)C[C@H]4C#N)c3c2)cc1 |
| 15.8 | 2.51 | 0.4 | 3.98 |  |  |  | CC(C)(C)c1nnc(C(=O)[C@@H]2CCCN2C(=O)CNC(=O)c2ccnc3ccccc23)o1 |
| 63.1 | 3.98 | 0.3 | 39.8 |  |  |  | O=C(NCC(=O)N1CCC[C@H]1C(=O)c1nc2ccccc2s1)c1ccnc2ccccc12 |
| 100 | 12.6 | 0.3 | 50.1 |  |  |  | O=C(NCC(=O)N1CCC[C@H]1C(=O)c1nccs1)c1ccnc2ccccc12 |
| 3.98 | 0.158 | 12 | 0.631 |  |  |  | CS(=O)(=O)c1ccc(-c2ccc3nccc(C(=O)NCC(=O)N4CCC[C@H]4C#N)c3c2)cc1 |
|  |  | 10.5 |  | 7.9 | 9.1 | 8.4 | O=C(O)CN1CCN(CC(=O)O)CCN(CC(=O)N2CCN(CCNC(=O)c3ccc(-c4ccc5nccc(C(=O)NCC(=O)N6CCC[C@H]6C(=O)c6nc7ccccc7o6)c5c4)cc3)CC2)CCN(CC(=O)O)CC1 [drawing 354] |
|  |  | 289.5 |  | 8.5 | 10.1 | 8.6 | O=C(O)CN1CCN(CC(=O)O)CCN(CC(=O)N2CCN(CCNC(=O)c3cccc(-c4ccc5nccc(C(=O)NCC(=O)N6CCC[C@H]6C(=O)c6nc7ccccc7o6)c5c4)c3)CC2)CCN(CC(=O)O)CC1 [drawing 353] |
